Values of other authors, collected in patent publication US20220202844A1, “DRUG DELIVERY COMPOSITION AND A METHOD OF ADMINISTERING THE DRUG” (priority 2020, published 2022).
Converted amounts (≈) assume the structure as drawn.

Conditions: background statement

aqueous solubility: 50 mg/mL (≈ 75.4 mM)
SMILES: NC(=O)c1ccc[n+]([C@@H]2O[C@H](COP(=O)([O-])OP(=O)(O)OC[C@H]3O[C@@H](n4cnc5c(N)ncnc54)[C@H](O)[C@@H]3O)[C@@H](O)[C@H]2O)c1 [NAD+, nicotinamide adenine dinucleotide]
